According to paper PMC12767113, “EM2, a Natural Product MST1/2 Kinase Activator, Suppresses Non‐Small Cell Lung Cancer via Hippo Pathway Activation” (Advanced Science, 2025):

Experiments:
MST1 [1] = molecular target: T1, MST1 (Homo sapiens, UniProt Q13043); test: isothermal titration calorimetry; assay type: binding; parameters: gene STK4; isolated MST1 protein (ITC) and "active MST1" (ADP-Glo); settings: 25 °C; 50 mM HEPES pH 7.5, 150 mM NaCl, 2 mM DTT
T1 sequence (Q13043 1-487): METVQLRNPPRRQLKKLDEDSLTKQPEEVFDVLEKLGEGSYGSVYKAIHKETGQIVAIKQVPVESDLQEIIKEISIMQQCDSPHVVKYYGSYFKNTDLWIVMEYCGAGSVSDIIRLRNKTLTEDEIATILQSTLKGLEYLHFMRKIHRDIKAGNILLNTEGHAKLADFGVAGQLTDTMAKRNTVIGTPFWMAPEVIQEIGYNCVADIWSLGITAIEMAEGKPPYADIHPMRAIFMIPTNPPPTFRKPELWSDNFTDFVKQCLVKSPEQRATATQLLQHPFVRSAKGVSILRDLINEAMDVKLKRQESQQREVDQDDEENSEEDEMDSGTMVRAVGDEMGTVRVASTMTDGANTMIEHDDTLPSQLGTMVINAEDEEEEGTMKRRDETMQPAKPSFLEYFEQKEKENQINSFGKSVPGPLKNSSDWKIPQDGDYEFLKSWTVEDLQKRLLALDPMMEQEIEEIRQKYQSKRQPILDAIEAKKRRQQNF

MST1-GFP = molecular target: T2, MST1-GFP (Homo sapiens, UniProt Q13043); test: microscale thermophoresis; settings: A549 cell lysate; GFP fusion as fluorophore; constant, if any, only in figure
T2 construct: gene STK4; GFP-tagged MST1 expressed from plasmid in A549 cells, RIPA lysate
T2 sequence (Q13043 1-487): T1 sequence (Q13043 1-487)
Description: microscale thermophoresis on MST1-GFP | Microscale thermophoresis confirmed dose‐dependent binding affinity (Figure 1H)

MST1 [2] = molecular target: T1, MST1; test: CETSA (immunoblot), H520 and A549 cells; assay type: cell-based; parameters: gene STK4; endogenous protein in A549 and H520 cells, detected by immunoblot (antibody CST #3682); settings: 42-56 °C, 3 min; supported by DARTS (50 and 100 µM, Pronase)
MST1 [3] = molecular target: T1, MST1; test: ADP-Glo kinase assay; assay type: biochemical; parameters: gene STK4; isolated MST1 protein (ITC) and "active MST1" (ADP-Glo); settings: activator; ATP and MOB1a substrate; 25 °C, 30 min

Kd (MST1 [1]): 1970 ± 1020 nM | Kd (MST1-GFP): 1790 ± 1690 nM
SMILES: C=C(C)C(=O)OC1CC(C)=CC2(OC)C=C(C)C(O2)C2OC(=O)C(=C)C12 (stereo not shown) [EM2]
CETSA (immunoblot), H520 and A549 cells (MST1 [2]): CETSA demonstrated that EM2 enhanced MST1 thermal stability | kinase activity (MST1 [3]): functions through its kinase activity, which significantly increased with EM2 concentration (Figure 1J)
